Legend:
[1] = test system: PSMA-targeted 22Rv1 tumor; assay: In vivo distribution test in cancer transplantation animals; parameters: species or system BALB/c male nude mice; settings: for intake when PSMA was blocked with PMPA / tissue with highest intake: summary of Tables 2 and 3
Protocol: Specifically, 0.1 mL of RPMI1640 culture medium containing 5×10^6 22 Rv1 cells was subcutaneously injected into the left flank of a 4-week-old male BALB/c nude mouse. After 2 to 3 weeks, the present inventors confirmed that the tumor tissue had reached an appropriate size and used it in the experiment. For animal injection, [^99mTc]Tc-15 prepared in Example 3 and [^99mTc]Tc-16 prepared in Example 4 were each diluted in saline for injection to a concentration of 0.74 MBq/100 μL. Each of these was injected into the tail vein of the mice transplanted with cancer cells, and after 1 hour and 4 hours, cancer, blood, muscle, heart. Lung, liver, spleen, stomach, small intestine, kidney, bone, and the like were collected and their weight and radioactivity were measured.

PSMA = PSMA (Homo sapiens, UniProt Q04609); settings: 22Rv1 cells, 1 hour at 37° C., non-specific binding with 250 μM PMPA, nonlinear regression
Protocol: The PSMA-positive prostate cancer cell line 22Rv1 was placed in a 24-well plate at the density of 1×10^5 cells/well, followed by culture in a 37° C., 5% CO2 incubator for 24 hours. […] 0.5 mL of the diluted solution was taken and put into cultured cells and incubated in a 37° C., 5% CO2 incubator for 1 hour. After removing the culture medium, the cells were washed twice with fresh culture medium, 1 mL of 0.5% sodium dodecyl sulfate (SDS) dissolved in phosphate buffered saline was added thereto, gently shaken to dissolve, and then transferred to a 5 mL disposable plastic test tube. The radioactivity of the tube was measured using a gamma counter. […] Specific binding was obtained by subtracting non-specific binding from total binding, and a saturation curve was drawn. […] From these saturation curves, the dissociation constant, Kd, was calculated by nonlinear regression using GraphPad Prism 7 program.

[2] = Stability test in human serum; type: in vitro ADME; settings: 36.5° C., after 2 hours
Protocol: The stability test in human serum is to test the stability when it comes into contact with human serum after administration to the human body, and the stability in the body is partly tested in vitro.
(§1) In order to examine the stability of [^99mTc]Tc-15 according to the present invention in human serum, 3.7 MBq of [^99mTc]Tc-15 (100 μL) prepared in Example 3 was added to 1 mL of human serum, mixed well, and then cultured at 36.5° C. with stirring. After 2 hours, the reaction mixture was analyzed by ITLC.
as §1, with “of [^99mTc]Tc-16” for “of [^99mTc]Tc-15”, “Example 4” for “Example 3”

[3] = test system: PSMA-expressing 22Rv1 tumor; assay: SPECT imaging in 22Rv1 cell-transplanted mice; type: in vivo, BALB/c nude mouse; settings: for tumor intake in SPECT image with PSMA blocked: MIP-1072 injected to selectively block PSMA; for tumor intake in SPECT image: intravenous injection; for distribution observed in SPECT image: 1 hour and 3 hours
Protocol: Specifically, 0.1 mL of RPMI1640 culture medium containing 5×10^6 22 Rv1 cells was subcutaneously injected into the right back of a 4-week-old male BALE/c nude mouse. After 2 to 3 weeks, the present inventors confirmed that the tumor tissue had reached an appropriate size and used it in the experiment. For animal injection, [^99mTc]Tc-15 and [^99mTc]Tc-16 were each diluted in saline for injection to a concentration of 10.2 MBq/100 μL. […]

[4] = 1 h Blockade, co-injection of 2-PMPA (100 μg)
[5] = 4 h Blockade, co-injection of 2-PMPA (100 μg)

Sequence of PSMA (Q04609 whole entry): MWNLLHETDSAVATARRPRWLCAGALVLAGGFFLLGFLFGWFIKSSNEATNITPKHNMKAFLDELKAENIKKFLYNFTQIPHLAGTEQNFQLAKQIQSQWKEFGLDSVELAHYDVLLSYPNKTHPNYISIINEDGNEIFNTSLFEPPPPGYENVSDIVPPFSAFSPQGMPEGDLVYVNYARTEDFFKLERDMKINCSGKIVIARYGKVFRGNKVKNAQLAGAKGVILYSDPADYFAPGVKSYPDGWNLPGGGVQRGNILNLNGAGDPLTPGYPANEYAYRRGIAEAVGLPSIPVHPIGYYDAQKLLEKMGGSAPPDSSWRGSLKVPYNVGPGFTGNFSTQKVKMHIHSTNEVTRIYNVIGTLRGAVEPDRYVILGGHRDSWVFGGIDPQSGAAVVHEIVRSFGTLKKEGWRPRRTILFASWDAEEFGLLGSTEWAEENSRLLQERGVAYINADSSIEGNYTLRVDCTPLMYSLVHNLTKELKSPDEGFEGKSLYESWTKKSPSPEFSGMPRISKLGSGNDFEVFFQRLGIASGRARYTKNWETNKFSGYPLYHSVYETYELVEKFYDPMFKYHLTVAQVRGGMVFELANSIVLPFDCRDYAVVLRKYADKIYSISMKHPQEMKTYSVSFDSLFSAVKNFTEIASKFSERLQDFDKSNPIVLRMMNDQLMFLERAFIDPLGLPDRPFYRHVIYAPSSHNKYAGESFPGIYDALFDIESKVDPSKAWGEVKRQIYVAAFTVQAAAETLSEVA

## [99Tc+].[C-]#[N+]CCC(=O)NCCCCCC(=O)NC(Cc1ccccc1)C(=O)N[C@H](Cc1ccccc1)C(=O)NCCCCCC(=O)NCCCCC(NC(=O)N[C@@H](CCC(=O)O)C(=O)O)C(=O)O.[C-]#[N+]CCC(=O)NCCCCCC(=O)NC(Cc1ccccc1)C(=O)N[C@H](Cc1ccccc1)C(=O)NCCCCCC(=O)NCCCCC(NC(=O)N[C@@H](CCC(=O)O)C(=O)O)C(=O)O.[C-]#[N+]CCC(=O)NCCCCCC(=O)NC(Cc1ccccc1)C(=O)N[C@H](Cc1ccccc1)C(=O)NCCCCCC(=O)NCCCCC(NC(=O)N[C@@H](CCC(=O)O)C(=O)O)C(=O)O.[C-]#[O+].[C-]#[O+].[C-]#[O+] (some centres unmarked) [[^99mTc]Tc-16]
[1]; 1 h
  In vivo distribution, Blood: 0.42 % ID/g
  In vivo distribution, Bone: 0.63 % ID/g
  In vivo distribution, Heart: 0.36 % ID/g
  In vivo distribution, Intestine: 0.47 % ID/g
  In vivo distribution, Kidney: 24.66 % ID/g
  In vivo distribution, Liver: 1.17 % ID/g
  In vivo distribution, Lung: 0.52 % ID/g
  In vivo distribution, Muscle: 0.13 % ID/g
  In vivo distribution, Spleen: 3.40 % ID/g
  In vivo distribution, Stomach: 0.85 % ID/g
  In vivo distribution, Tail: 0.49 % ID/g
  In vivo distribution, Tumor: 1.87 % ID/g
  Tumor/blood: 4.43
  Tumor/kidney: 0.08
  Tumor/liver: 1.60
  Tumor/muscle: 14.05
[1]; [4]
  In vivo distribution, Blood: 0.75 % ID/g
  In vivo distribution, Bone: 1.16 % ID/g
  In vivo distribution, Heart: 0.48 % ID/g
  In vivo distribution, Intestine: 0.85 % ID/g
  In vivo distribution, Kidney: 5.66 % ID/g
  In vivo distribution, Liver: 1.95 % ID/g
  In vivo distribution, Lung: 1.63 % ID/g
  In vivo distribution, Muscle: 0.22 % ID/g
  In vivo distribution, Spleen: 0.40 % ID/g
  In vivo distribution, Stomach: 1.04 % ID/g
  In vivo distribution, Tail: 1.18 % ID/g
  In vivo distribution, Tumor: 0.45 % ID/g
  Tumor/blood: 0.61
  Tumor/kidney: 0.08
  Tumor/liver: 0.23
  Tumor/muscle: 2.16
[1]; 4 h
  In vivo distribution, Blood: 0.17 % ID/g
  In vivo distribution, Bone: 1.04 % ID/g
  In vivo distribution, Heart: 0.25 % ID/g
  In vivo distribution, Intestine: 1.48 % ID/g
  In vivo distribution, Kidney: 39.65 % ID/g
  In vivo distribution, Liver: 0.69 % ID/g
  In vivo distribution, Lung: 0.36 % ID/g
  In vivo distribution, Muscle: 0.07 % ID/g
  In vivo distribution, Spleen: 3.44 % ID/g
  In vivo distribution, Stomach: 0.42 % ID/g
  In vivo distribution, Tail: 0.48 % ID/g
  In vivo distribution, Tumor: 2.83 % ID/g
  Tumor/blood: 16.70
  Tumor/kidney: 0.07
  Tumor/liver: 4.17
  Tumor/muscle: 40.43
[1]; [5]
  In vivo distribution, Blood: 0.15 % ID/g
  In vivo distribution, Bone: 0.47 % ID/g
  In vivo distribution, Heart: 0.11 % ID/g
  In vivo distribution, Intestine: 1.26 % ID/g
  In vivo distribution, Kidney: 3.59 % ID/g
  In vivo distribution, Liver: 1.33 % ID/g
  In vivo distribution, Lung: 0.45 % ID/g
  In vivo distribution, Muscle: 0.05 % ID/g
  In vivo distribution, Spleen: 0.20 % ID/g
  In vivo distribution, Stomach: 0.23 % ID/g
  In vivo distribution, Tail: 0.53 % ID/g
  In vivo distribution, Tumor: 0.39 % ID/g
  Tumor/blood: 2.67
  Tumor/kidney: 0.11
  Tumor/liver: 0.30
  Tumor/muscle: 8.44
[1]
  intake when PSMA was blocked with PMPA: the intake was decreased
  tissue with highest intake: the highest intake in the kidney
PSMA
  Kd: 0.2 nM
[2]
  stability in human serum (ITLC): most of them were present as [^99mTc]Tc-16 and hardly separated as ^99mTc
[3]
  tumor intake in SPECT image with PSMA blocked: tumor intake was not observed
[3]; 1 hour after the injection
  tumor intake in SPECT image: the increase in radioactivity was evident
[3]; 4 hours after the injection
  tumor intake in SPECT image: the intake was more distinct
[3]; tail vein injection
  distribution observed in SPECT image: not only excreted by the kidney but also ingested into the prostate cancer tissue
[3]; tail vein injection, FIGS. 4A and 5A
  intake in prostate cancer in SPECT image, compared between the two labeled compounds: higher intake in prostate cancer

## [99Tc+].[C-]#[N+]CCC(=O)NCCCCCC(=O)NCCCCC(NC(=O)N[C@@H](CCC(=O)O)C(=O)O)C(=O)O.[C-]#[N+]CCC(=O)NCCCCCC(=O)NCCCCC(NC(=O)N[C@@H](CCC(=O)O)C(=O)O)C(=O)O.[C-]#[N+]CCC(=O)NCCCCCC(=O)NCCCCC(NC(=O)N[C@@H](CCC(=O)O)C(=O)O)C(=O)O.[C-]#[O+].[C-]#[O+].[C-]#[O+] (some centres unmarked) [[^99mTc]Tc-15]
[1]; 1 h
  In vivo distribution, Blood: 0.60 % ID/g
  In vivo distribution, Bone: 0.34 % ID/g
  In vivo distribution, Heart: 0.22 % ID/g
  In vivo distribution, Intestine: 0.78 % ID/g
  In vivo distribution, Kidney: 59.59 % ID/g
  In vivo distribution, Liver: 0.94 % ID/g
  In vivo distribution, Lung: 0.64 % ID/g
  In vivo distribution, Muscle: 0.17 % ID/g
  In vivo distribution, Spleen: 0.90 % ID/g
  In vivo distribution, Stomach: 0.31 % ID/g
  In vivo distribution, Tumor: 1.48 % ID/g
  Tumor/blood: 2.5
  Tumor/kidney: 0.02
  Tumor/liver: 1.57
  Tumor/muscle: 8.5
[1]; [4]
  In vivo distribution, Blood: 0.52 % ID/g
  In vivo distribution, Bone: 0.26 % ID/g
  In vivo distribution, Heart: 0.16 % ID/g
  In vivo distribution, Intestine: 0.55 % ID/g
  In vivo distribution, Kidney: 4.22 % ID/g
  In vivo distribution, Liver: 0.84 % ID/g
  In vivo distribution, Lung: 0.61 % ID/g
  In vivo distribution, Muscle: 0.11 % ID/g
  In vivo distribution, Spleen: 0.15 % ID/g
  In vivo distribution, Stomach: 0.17 % ID/g
  In vivo distribution, Tumor: 0.38 % ID/g
  Tumor/blood: 0.73
  Tumor/kidney: 0.09
  Tumor/liver: 0.45
  Tumor/muscle: 3.5
[1]; 4 h
  In vivo distribution, Blood: 0.31 % ID/g
  In vivo distribution, Bone: 0.16 % ID/g
  In vivo distribution, Heart: 0.12 % ID/g
  In vivo distribution, Intestine: 0.81 % ID/g
  In vivo distribution, Kidney: 13.72 % ID/g
  In vivo distribution, Liver: 0.85 % ID/g
  In vivo distribution, Lung: 0.30 % ID/g
  In vivo distribution, Muscle: 0.08 % ID/g
  In vivo distribution, Spleen: 0.26 % ID/g
  In vivo distribution, Stomach: 0.15 % ID/g
  In vivo distribution, Tumor: 0.81 % ID/g
  Tumor/blood: 2.6
  Tumor/kidney: 0.06
  Tumor/liver: 0.96
  Tumor/muscle: 10.4
[1]; [5]
  In vivo distribution, Blood: 0.31 % ID/g
  In vivo distribution, Bone: 0.20 % ID/g
  In vivo distribution, Heart: 0.10 % ID/g
  In vivo distribution, Intestine: 0.97 % ID/g
  In vivo distribution, Kidney: 1.44 % ID/g
  In vivo distribution, Liver: 0.84 % ID/g
  In vivo distribution, Lung: 0.30 % ID/g
  In vivo distribution, Muscle: 0.08 % ID/g
  In vivo distribution, Spleen: 0.16 % ID/g
  In vivo distribution, Stomach: 0.14 % ID/g
  In vivo distribution, Tumor: 0.20 % ID/g
  Tumor/blood: 0.65
  Tumor/kidney: 0.14
  Tumor/liver: 0.24
  Tumor/muscle: 2.71
[1]
  intake when PSMA was blocked with PMPA: the intake was decreased
  tissue with highest intake: the highest intake in the kidney
PSMA
  Kd: 5.5 nM
[2]
  stability in human serum (ITLC): most of them were present as [^99mTc]Tc-15 and hardly separated as ^99mTc
[3]
  tumor intake in SPECT image with PSMA blocked: tumor intake was not observed
[3]; 1 hour and 3 hours after the injection
  tumor intake in SPECT image: no clear intake was observed
[3]; tail vein injection
  distribution observed in SPECT image: not only excreted by the kidney but also ingested into the prostate cancer tissue
